The structures appear in SMILES notation.

Type in all cases: cell-based, human
Assay [1] has as its system JEG-3 cells. Description: CellTiter-Glo luminescent cell viability assay (HTTS). Particulars: for Viability ↓, lowest concentration at which the mean response value exceeded the mean control value ± 2*SD (rough binning): decrease; for cell viability relative to vehicle control (rough binning): after 24 h, in at least one concentration. In outline: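 JEG-3 cells (2,500/well) adhered overnight, then exposed 24 h to PFAS (methanol stocks; vehicle 2.5% methanol, top concentration 500 µM). Viability read by CellTiter-Glo ATP luminescence in the same wells as mitochondrial membrane potential; wells with 0 h confluence <20% or >80% excluded.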
In general terms: ATP-based viability assays read luminescence as a measure of living cells.

Assay [2] concerns JEG-3 cells. Description: Proliferation, change in confluence 0-24 h (IncuCyte Zoom, HTTS). Particulars: for cellular proliferation relative to vehicle control (rough binning): after 24 h, in at least one concentration; for Prolif ↓, lowest concentration at which the mean response value exceeded the mean control value ± 2*SD (rough binning): decrease. In outline:
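Confluence measured by automated image masking at 0 h and 24 h after dosing; proliferation = 24 h minus baseline confluence. JEG-3 seeded at 2,500 cells/well, ~30–50% baseline confluence, exposed 24 h to PFAS up to 500 µM in medium with 2.5% methanol vehicle; 37°C, 5% CO2.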

Assay [3] deals with JEG-3 cells. Description: Mitochondrial membrane potential, JC-10 assay (HTTS). Particulars: for MMP ↓, lowest concentration at which the mean response value exceeded the mean control value ± 2*SD (rough binning): 24 h, decrease; for EC50: four-parameter fit, estimates meeting inclusion criteria; for MMP relative to vehicle control (rough binning): after 24 h, in at least one concentration. Put shortly:
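JEG-3 cells seeded at 2,500 per well were exposed to PFAS for 24 h at 37 °C, with 2.5% methanol vehicle. After a PBS wash, 20 μM JC-10 was added for 1 h at 37 °C. Membrane potential was taken as the green (490/525 nm) to red (540/590 nm) fluorescence ratio.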

[4] abbreviates: JEG-3 cells, 24 h exposure, four-parameter fit, estimates meeting inclusion criteria, read-out: Viability EC50 ± SD.
[5] abbreviates: JEG-3 cells, 24 h exposure, four-parameter fit, estimates meeting inclusion criteria, read-out: Proliferation EC50 ± SD.
[6] abbreviates: JEG-3 cells, 24 h exposure, read-out: MMP EC50 ± SD.
The mark [7] stands for this setting: Homo sapiens, JEG-3, 24 h, read-out: Viability EC50 ± SD, JEG-3 cells, 24 h exposure, four-parameter fit, estimates meeting inclusion criteria.
[8] abbreviates: Homo sapiens, JEG-3, 24 h, read-out: Proliferation EC50 ± SD, JEG-3 cells, 24 h exposure, four-parameter fit, estimates meeting inclusion criteria.
The mark [9] stands for this setting: Homo sapiens, JEG-3, 24 h, read-out: MMP EC50 ± SD, JEG-3 cells, 24 h exposure.

As to `N.O=C(O)C(F)(OC(F)(F)C(F)(F)C(F)(F)F)C(F)(F)F` (stereo not drawn) [Ammonium perfluoro-2-methyl-3-oxahexanoate], the “Viability ↓, lowest concentration at which the mean response value exceeded the mean control value ± 2*SD (rough binning)” value with JEG-3 cells [1] (JEG-3 cells, 24 h) is recorded as 350 µM. For the same molecule, the “cell viability relative to vehicle control (rough binning)” value in the assay on JEG-3 cells [1] is “reduced cell viability”. In addition, the “Prolif ↑, lowest concentration at which the mean response value exceeded the mean control value ± 2*SD (rough binning)” value in the assay on JEG-3 cells [2] (JEG-3 cells, 24 h, increase) was 50 µM. In the assay with JEG-3 cells [2], the “cellular proliferation relative to vehicle control (rough binning)” value is on record as “increased cellular proliferation”.

Regarding `O=C(O)C(F)(F)C(F)(F)C(F)(F)C(F)(F)C(F)(F)C(F)(F)C(F)(F)C(F)(F)F` [Perfluorononanoic acid], the “Viability ↓, lowest concentration at which the mean response value exceeded the mean control value ± 2*SD (rough binning)” value with JEG-3 cells [1] (JEG-3 cells, 24 h) amounted to 350 µM. Also, the EC50 is 333 ± 10.3 µM in the assay with JEG-3 cells [1] (setting [4]), 326 ± 5.5 µM with JEG-3 cells [2] (setting [5]) and 305 ± 13.6 µM in the assay with JEG-3 cells [3] (setting [6]). In addition, the “cell viability relative to vehicle control (rough binning)” value with JEG-3 cells [1] is “reduced cell viability”. In addition, the “Prolif ↓, lowest concentration at which the mean response value exceeded the mean control value ± 2*SD (rough binning)” value in the assay with JEG-3 cells [2] (JEG-3 cells, 24 h) came out at 300 µM. For the same molecule, the “cellular proliferation relative to vehicle control (rough binning)” value with JEG-3 cells [2] is recorded as “reduced cellular proliferation”. In addition, the “MMP ↓, lowest concentration at which the mean response value exceeded the mean control value ± 2*SD (rough binning)” value in the assay on JEG-3 cells [3] (JEG-3 cells) is listed as 300 µM. Moreover, in the assay with JEG-3 cells [3], the “MMP relative to vehicle control (rough binning)” value (“MMP relative to vehicle control” below) is reported as “reduced MMP”.

Regarding `NS(=O)(=O)C(F)(F)C(F)(F)C(F)(F)C(F)(F)C(F)(F)C(F)(F)C(F)(F)C(F)(F)F` [Perfluorooctanesulfonamide], the EC50 in the assay on JEG-3 cells [1] (setting [7]) was 175 ± 4.9 µM; in the assay with JEG-3 cells [1] (Homo sapiens, JEG-3, 24 h, read-out: viability EC50 ± SE, JEG-3 cells, 24 h), 176 ± 5 µM; with JEG-3 cells [1] (read-out: Viability EC50 ± SD, JEG-3 cells, 24 h exposure, four-parameter fit, estimates meeting inclusion criteria), 176 ± 4.9 µM; in the assay on JEG-3 cells [2] (setting [8]) it was 160 ± 87.8 µM; with JEG-3 cells [2] (Homo sapiens, JEG-3, 24 h, read-out: proliferation EC50 ± SE, JEG-3 cells, 24 h), 160 ± 90 µM; in the assay on JEG-3 cells [3] (setting [9]), 227 ± 370 µM.

For `O=S(=O)(O)C(F)(F)C(F)(F)C(F)(F)C(F)(F)C(F)(F)C(F)(F)C(F)(F)C(F)(F)F` [Perfluorooctanesulfonic acid], the “Viability ↓, lowest concentration at which the mean response value exceeded the mean control value ± 2*SD (rough binning)” value in the assay on JEG-3 cells [1] (JEG-3 cells, 24 h) came out at 300 µM. Moreover, the EC50 in the assay on JEG-3 cells [1] (JEG-3 cells, 24 h exposure, four-parameter fit, estimates meeting inclusion criteria, listed as PFOS, read-out: Viability EC50 ± SD) is 291 µM; in the assay with JEG-3 cells [1] (setting [4]) it was 291 ± 9.1 µM; in the assay on JEG-3 cells [2] (JEG-3 cells, 24 h exposure, four-parameter fit, estimates meeting inclusion criteria, listed as PFOS, read-out: Proliferation EC50 ± SD), 294 µM; with JEG-3 cells [2] (setting [5]) it was 294 ± 5.8 µM; in the assay on JEG-3 cells [3] (JEG-3 cells, 24 h exposure, listed as PFOS, read-out: MMP EC50 ± SD) it was 353 µM; with JEG-3 cells [3] (setting [6]), 353 ± 6.7 µM. In the assay with JEG-3 cells [1], the “cell viability relative to vehicle control (rough binning)” value is reported as “reduced cell viability”. Further, in the assay on JEG-3 cells [2] (JEG-3 cells, 24 h), the “Prolif ↓, lowest concentration at which the mean response value exceeded the mean control value ± 2*SD (rough binning)” value came to 250 µM. In the assay on JEG-3 cells [2], the “cellular proliferation relative to vehicle control (rough binning)” value was “reduced cellular proliferation”. Besides, the “MMP ↓, lowest concentration at which the mean response value exceeded the mean control value ± 2*SD (rough binning)” value in the assay on JEG-3 cells [3] (JEG-3 cells) was determined as 350 µM. In the assay on JEG-3 cells [3], the “MMP relative to vehicle control” value is given as “reduced MMP”.

As to `O=C(O)C(F)(F)C(F)(F)C(F)(F)C(F)(F)C(F)(F)C(F)(F)C(F)(F)F` [Perfluorooctanoic acid], the EC50 was 358 ± 16.9 µM in the assay with JEG-3 cells [1] (setting [7]), 344 ± 12.2 µM in the assay with JEG-3 cells [2] (setting [8]) and 360 ± 18 µM in the assay on JEG-3 cells [3] (setting [9]). Further, the “Viability ↑, lowest concentration at which the mean response value exceeded the mean control value ± 2*SD (rough binning)” value with JEG-3 cells [1] (JEG-3 cells, 24 h, increase) was 200 µM. The minimal effective concentration with JEG-3 cells [2] (Homo sapiens, JEG-3, 24 h, read-out: Prolif ↓, lowest concentration at which the mean response value exceeded the mean control value ± 2*SD (rough binning)) was found to be 350 µM; in the assay on JEG-3 cells [3] (Homo sapiens, JEG-3, 24 h, read-out: MMP ↓, lowest concentration at which the mean response value exceeded the mean control value ± 2*SD (rough binning)), 450 µM. Moreover, the “cellular proliferation relative to vehicle control (rough binning)” value with JEG-3 cells [2] was “reduced cellular proliferation”. The “MMP relative to vehicle control” value in the assay on JEG-3 cells [3] was “reduced MMP”.

Values taken from paper PMC9081605, “A High-Throughput Toxicity Screen of 42 Per- and Polyfluoroalkyl Substances (PFAS) and Functional Assessment of Migration and Gene Expression in Human Placental Trophoblast Cells” (Frontiers in Toxicology, 2022).
